Source: the NIST ThermoML archive (doi:10.1016/j.fluid.2016.06.019)
Numbers after ± are expanded uncertainties.

What was measured:
[1] = refractive index (Na D-line) (dimensionless); wn = mass fraction of the nth substance listed; conditions: 298.15 K, 100 kPa, Liquid, Standard Abbe refractometry
[2] = refractive index (Na D-line) (dimensionless); conditions: 298.15 K; 100 kPa; Liquid; Standard Abbe refractometry
[3] = wn = mass fraction of the nth substance listed; conditions: 298.15 K, 100 kPa, Liquid, Vibrating tube method

O [water] + O=S(=O)([O-])[O-].[Na+].[Na+]
Conditions | refractive index
[1], w2 = 0 | 1.3325 ± 0.00031

O [water]
Conditions | refractive index
[2] | 1.3325 ± 0.00031

O [water] + N.N.O=S(=O)(O)O
Conditions | refractive index
[1], w2 = 0 | 1.3325 ± 0.00031

O=S(=O)([O-])[O-].[Na+].[Na+] [sodium sulfate] + O
Conditions | mass density, [3] [kg/m3] | refractive index, [1]
w1 = 0.0005 | 997.6 ± 0.3 | 1.33258 ± 0.00031
w1 = 0.0011 | 998.1 ± 0.3 | 1.33266 ± 0.00031
w1 = 0.0053 | 1002 ± 0.3 | 1.33331 ± 0.00031
w1 = 0.0108 | 1006.9 ± 0.3 | 1.33414 ± 0.00031
w1 = 0.0214 | 1016.5 ± 0.3 | 1.3357 ± 0.00031
w1 = 0.042 | 1035.1 ± 0.3 | 1.33875 ± 0.00031
w1 = 0.0719 | 1062.6 ± 0.3 | 1.34307 ± 0.00032
w1 = 0.0994 | 1088.5 ± 0.3 | 1.34535 ± 0.00032

N.N.O=S(=O)(O)O [ammonium sulfate] + O
Conditions | mass density, [3] [kg/m3] | refractive index, [1]
w1 = 0.0005 | 997.4 ± 0.2 | 1.33259 ± 0.00031
w1 = 0.0011 | 997.7 ± 0.2 | 1.33268 ± 0.00031
w1 = 0.0053 | 1000.3 ± 0.2 | 1.33337 ± 0.00031
w1 = 0.0104 | 1003.3 ± 0.2 | 1.33425 ± 0.00031
w1 = 0.0208 | 1009.4 ± 0.2 | 1.33594 ± 0.00031
w1 = 0.0412 | 1021.2 ± 0.2 | 1.33921 ± 0.00032
w1 = 0.0712 | 1038.4 ± 0.2 | 1.34393 ± 0.00032
w1 = 0.1007 | 1055.3 ± 0.2 | 1.34856 ± 0.00032
